Results published in PubChem BioAssay (NCI).
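Each compound was tested at five concentrations against cells in 96-well plates for 48 hours. The concentration for full growth arrest is given as TGI.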

Tests used:
Experiment in all cases: growth of human tumour cells (NCI), 48 h
[1] = system: KM12 colon
[2] = system: OVCAR-5 ovarian
[3] = system: PC-3 prostate
[4] = system: SNB-19 CNS
[5] = system: HCT-15 colon
[6] = system: HOP-62 NSCLC
[7] = system: SK-MEL-28 melanoma
[8] = system: MDA-MB-435
[9] = system: BT-549 breast
[10] = system: EKVX NSCLC
[11] = system: MOLT-4 leukemia
[12] = system: A498 renal
[13] = system: HCC-2998 colon
[14] = system: OVCAR-8 ovarian
[15] = system: MDA-MB-231 breast
[16] = system: IGROV1 ovarian
[17] = system: HS 578T breast
[18] = system: U251 CNS
[19] = system: NCI-H226 lung
[20] = system: HCT-116 colon
[21] = system: RPMI-8226 leukemia
[22] = system: SNB-75 CNS
[23] = system: COLO 205 colon
[24] = system: SK-MEL-2 melanoma
[25] = system: TK-10 renal
[26] = system: NCI-H23 lung
[27] = system: MDA-N
[28] = system: SF-268 CNS
[29] = system: ACHN renal
[30] = system: 786-0 renal
[31] = system: A549 NSCLC
[32] = system: NCI-H460 lung
[33] = system: UACC-257 melanoma
[34] = system: MALME-3M melanoma
[35] = system: OVCAR-3 ovarian
[36] = system: SK-MEL-5 melanoma
[37] = system: SW-620 colon
[38] = system: UO-31 renal
[39] = system: M14 melanoma
[40] = system: SR leukemia
[41] = system: SF-295 CNS
[42] = system: LOX IMVI melanoma
[43] = system: K-562 leukemia
[44] = system: T-47D breast
[45] = system: HOP-92 NSCLC
[46] = system: NCI/ADR-RES ovarian
[47] = system: OVCAR-4 ovarian
[48] = system: SN12C renal
[49] = system: DU-145 prostate
[50] = system: NCI-H522 lung
[51] = system: SF-539 CNS
[52] = system: MCF7 breast
[53] = system: UACC-62 melanoma
[54] = system: RXF 393 renal
[55] = system: CAKI-1 renal
[56] = system: CCRF-CEM leukemia
[57] = system: HT29 colon
[58] = system: SK-OV-3 ovarian

Measured: TGI

CC(C)=CCC[C@@H](C)/C=C/C=C(\C)C(=O)CC[C@@H]1CC[N@+]2(C)CCCC[C@H]12
not listed: [56] | [57] | [58]
> 100 µM: all other assays above

O=c1oc2ccccc2nc1/C=C(\O)c1ccc(Cl)cc1
not listed: [7] | [21] | [37] | [42] | [45]
> 100 µM: all other assays above
